Data taken from ChEMBL document CHEMBL1201862, “PubChem BioAssay data set” (2004).
One block for each molecule: values may come before it. Active and inactive are the calls of the source.

Experiments:
[1] = target: Benomyl/methotrexate resistance protein (Candida albicans, UniProt P28873); test: CaMdr1 efflux pump inhibitor potency, dose response, singleplex, Cherry Pick1 hits (AID 588608); format: functional
[2] = target: Protein disulfide-isomerase (Homo sapiens, UniProt P07237); test: PDI inhibitors, insulin aggregation turbidity, dose response, biochemical, absorbance, cherry-picked samples (AID 602350); format: functional
Protein disulfide-isomerase, sequence (P07237 whole entry): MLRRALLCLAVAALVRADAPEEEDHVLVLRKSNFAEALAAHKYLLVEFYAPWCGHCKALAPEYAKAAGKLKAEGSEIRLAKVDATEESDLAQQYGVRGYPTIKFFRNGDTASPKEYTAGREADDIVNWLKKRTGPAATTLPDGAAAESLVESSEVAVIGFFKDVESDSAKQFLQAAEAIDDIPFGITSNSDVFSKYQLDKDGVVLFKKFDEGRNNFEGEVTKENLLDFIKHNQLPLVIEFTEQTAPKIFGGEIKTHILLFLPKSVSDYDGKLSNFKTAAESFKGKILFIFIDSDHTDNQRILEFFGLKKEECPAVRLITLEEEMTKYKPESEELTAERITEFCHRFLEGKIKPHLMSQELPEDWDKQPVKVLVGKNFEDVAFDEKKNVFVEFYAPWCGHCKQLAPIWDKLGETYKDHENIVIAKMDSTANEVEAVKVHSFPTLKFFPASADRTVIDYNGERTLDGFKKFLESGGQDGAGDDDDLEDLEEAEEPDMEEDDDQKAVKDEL

[3] = target: 26S proteasome non-ATPase regulatory subunit 14 (Homo sapiens, UniProt O00487); test: inhibition of proteasome subunit RPN11 – biochemical, fluorescence polarization, uHTS hits, confirmation (AID 602368); format: functional
26S proteasome non-ATPase regulatory subunit 14, sequence (O00487 whole entry): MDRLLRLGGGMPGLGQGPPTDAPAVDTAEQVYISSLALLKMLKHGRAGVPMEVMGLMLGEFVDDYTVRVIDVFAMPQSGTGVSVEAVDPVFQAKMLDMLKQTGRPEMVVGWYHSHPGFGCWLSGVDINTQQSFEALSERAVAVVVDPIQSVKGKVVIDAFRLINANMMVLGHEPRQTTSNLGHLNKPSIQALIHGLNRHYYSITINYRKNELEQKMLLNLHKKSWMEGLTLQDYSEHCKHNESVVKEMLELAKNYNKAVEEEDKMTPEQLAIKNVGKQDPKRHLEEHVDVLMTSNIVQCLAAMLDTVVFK

Prothrombin = Prothrombin (Bos taurus, UniProt P00735); test: thrombin inhibition, dose response, biochemical, fluorescence polarization, uHTS hits (AID 602369); format: functional
[4] = target: 72 kDa type IV collagenase (Homo sapiens, UniProt P08253); test: Dose Response validation of uHTS RPN11 inhibitor hits using a MMP-2 Fluorescence assay.; format: functional
72 kDa type IV collagenase, sequence (P08253 whole entry): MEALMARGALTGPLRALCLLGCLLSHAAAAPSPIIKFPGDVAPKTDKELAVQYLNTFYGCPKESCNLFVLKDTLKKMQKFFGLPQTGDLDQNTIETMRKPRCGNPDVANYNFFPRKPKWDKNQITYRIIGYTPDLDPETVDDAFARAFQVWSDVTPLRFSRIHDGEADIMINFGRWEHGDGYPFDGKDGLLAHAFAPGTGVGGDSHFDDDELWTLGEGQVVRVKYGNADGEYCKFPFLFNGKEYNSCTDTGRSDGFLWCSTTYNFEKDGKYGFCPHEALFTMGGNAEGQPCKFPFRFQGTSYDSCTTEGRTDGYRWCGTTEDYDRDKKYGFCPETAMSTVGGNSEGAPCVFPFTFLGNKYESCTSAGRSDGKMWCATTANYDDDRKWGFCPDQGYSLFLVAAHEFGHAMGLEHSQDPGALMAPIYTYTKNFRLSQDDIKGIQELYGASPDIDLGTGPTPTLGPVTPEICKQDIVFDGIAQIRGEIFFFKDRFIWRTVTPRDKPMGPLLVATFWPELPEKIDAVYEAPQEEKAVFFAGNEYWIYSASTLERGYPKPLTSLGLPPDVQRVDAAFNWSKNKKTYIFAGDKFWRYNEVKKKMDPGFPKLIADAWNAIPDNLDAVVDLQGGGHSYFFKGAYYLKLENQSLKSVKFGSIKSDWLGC

[5] = target: Tyrosine-protein phosphatase non-receptor type 11 (Homo sapiens, UniProt Q06124); test: SHP2 phosphatase inhibition, dose response, selectivity assay for STEP inhibitor project, biochemical (AID 602367); format: functional; details: read-out: IC50_Mean
[6] = target: Tyrosine-protein phosphatase non-receptor type 5 (Homo sapiens, UniProt P54829); test: STEP phosphatase inhibitors, confirmation, biochemical, fluorescence intensity, uHTS hits (AID 602372); format: functional; details: read-out: IC50_Mean
Tyrosine-protein phosphatase non-receptor type 5, sequence (P54829 whole entry): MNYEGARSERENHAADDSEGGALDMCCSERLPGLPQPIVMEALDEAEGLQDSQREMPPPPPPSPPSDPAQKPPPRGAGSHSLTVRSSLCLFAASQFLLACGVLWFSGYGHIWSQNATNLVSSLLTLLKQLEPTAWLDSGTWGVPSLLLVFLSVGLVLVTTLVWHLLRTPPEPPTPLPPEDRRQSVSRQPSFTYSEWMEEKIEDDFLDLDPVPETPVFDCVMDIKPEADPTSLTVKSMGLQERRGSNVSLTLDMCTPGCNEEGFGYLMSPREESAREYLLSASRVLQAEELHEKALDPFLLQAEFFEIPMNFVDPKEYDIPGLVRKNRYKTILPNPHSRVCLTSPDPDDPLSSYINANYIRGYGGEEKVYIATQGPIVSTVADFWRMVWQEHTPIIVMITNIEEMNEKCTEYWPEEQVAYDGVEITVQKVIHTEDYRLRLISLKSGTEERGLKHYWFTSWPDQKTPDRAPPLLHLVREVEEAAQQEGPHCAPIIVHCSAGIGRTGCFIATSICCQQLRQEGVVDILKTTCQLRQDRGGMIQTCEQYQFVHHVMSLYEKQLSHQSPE

[7] = target: Dual specificity protein phosphatase 3 (Homo sapiens, UniProt P51452); test: VHR phosphatase inhibition, dose response, selectivity assay for STEP inhibitor project, biochemical (AID 602374); format: functional; details: read-out: IC50_Mean
Dual specificity protein phosphatase 3, sequence (P51452 whole entry): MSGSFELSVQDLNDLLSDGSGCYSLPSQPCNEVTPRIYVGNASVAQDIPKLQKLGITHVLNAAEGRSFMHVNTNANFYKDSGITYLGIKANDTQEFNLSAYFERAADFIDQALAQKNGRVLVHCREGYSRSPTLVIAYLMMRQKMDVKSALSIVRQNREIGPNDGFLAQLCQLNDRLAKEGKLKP

INS1 = test: beta cell apoptosis inhibitors, cytokine rescue, dose response, luminescence, retest (AID 449756); format: functional, cell-based; details: Rattus norvegicus;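 further: cell death triggered by IL-1 beta plus TNF-alpha plus IFN-gamma mixture; protective hits raise ATP signal compared with cytokine alone wells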
[8] = target: T1, High affinity choline transporter 1 (Homo sapiens, UniProt Q9GZV3); test: CHT inhibitors, dose response, cell-based, 5-point CRC, membrane potential dye (AID 504840); format: functional
T1 sequence (Q9GZV3 whole entry): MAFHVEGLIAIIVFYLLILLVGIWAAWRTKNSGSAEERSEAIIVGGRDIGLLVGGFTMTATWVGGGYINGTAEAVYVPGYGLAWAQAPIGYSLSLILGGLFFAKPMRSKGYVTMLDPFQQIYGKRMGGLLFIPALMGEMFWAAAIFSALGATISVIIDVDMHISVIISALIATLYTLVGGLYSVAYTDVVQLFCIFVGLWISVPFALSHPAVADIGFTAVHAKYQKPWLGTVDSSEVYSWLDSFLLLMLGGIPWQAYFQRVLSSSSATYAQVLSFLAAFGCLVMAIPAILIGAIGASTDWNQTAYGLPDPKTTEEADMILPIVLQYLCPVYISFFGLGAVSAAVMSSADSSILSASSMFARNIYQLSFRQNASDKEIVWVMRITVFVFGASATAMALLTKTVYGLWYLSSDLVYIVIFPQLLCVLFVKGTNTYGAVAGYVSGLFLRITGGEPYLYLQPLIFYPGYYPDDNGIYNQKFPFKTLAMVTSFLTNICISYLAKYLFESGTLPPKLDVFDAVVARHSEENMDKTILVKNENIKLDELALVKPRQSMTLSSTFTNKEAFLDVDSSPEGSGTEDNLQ

[9] = target: T1, High affinity choline transporter 1; test: CHT inhibitors, dose response, cell-based, 10-point CRC, membrane potential dye (AID 588401); format: functional;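 further: membrane potential dye fluorescence of choline-evoked depolarization via CHT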
[10] = target: Potassium voltage-gated channel subfamily KQT member 2 (Rattus norvegicus, UniProt O88943); test: KCNQ2 potassium channel inhibitors, dose response, cell-based, automated electrophysiology, set II, rat KCNQ2 (AID 588637); format: functional
Potassium voltage-gated channel subfamily KQT member 2, sequence (O88943 whole entry): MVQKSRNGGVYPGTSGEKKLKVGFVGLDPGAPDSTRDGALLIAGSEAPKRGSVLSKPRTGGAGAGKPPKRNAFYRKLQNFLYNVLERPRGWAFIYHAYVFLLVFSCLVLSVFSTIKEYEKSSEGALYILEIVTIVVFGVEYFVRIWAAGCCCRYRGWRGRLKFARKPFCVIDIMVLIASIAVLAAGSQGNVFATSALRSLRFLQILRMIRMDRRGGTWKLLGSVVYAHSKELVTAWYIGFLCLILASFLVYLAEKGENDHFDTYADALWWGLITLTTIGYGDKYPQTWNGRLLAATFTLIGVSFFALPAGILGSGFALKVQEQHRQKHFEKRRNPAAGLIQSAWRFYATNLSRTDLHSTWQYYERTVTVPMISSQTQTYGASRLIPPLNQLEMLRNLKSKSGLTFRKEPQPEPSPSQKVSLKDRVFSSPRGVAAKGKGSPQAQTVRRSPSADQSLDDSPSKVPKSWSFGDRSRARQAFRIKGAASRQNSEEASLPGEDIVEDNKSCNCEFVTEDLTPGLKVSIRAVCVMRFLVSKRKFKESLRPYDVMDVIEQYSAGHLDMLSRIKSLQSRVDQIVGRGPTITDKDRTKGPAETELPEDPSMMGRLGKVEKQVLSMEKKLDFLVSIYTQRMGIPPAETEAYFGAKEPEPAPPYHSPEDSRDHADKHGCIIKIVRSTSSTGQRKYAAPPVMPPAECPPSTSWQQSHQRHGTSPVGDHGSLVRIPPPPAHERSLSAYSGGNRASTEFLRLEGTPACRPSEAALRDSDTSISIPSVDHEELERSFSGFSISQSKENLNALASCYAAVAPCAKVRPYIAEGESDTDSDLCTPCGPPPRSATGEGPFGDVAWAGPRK

[11] = target: T2, Sentrin-specific protease 8 (Homo sapiens, UniProt Q96LD8); test: SENP8 protease inhibitors, SAR follow-up, biochemical, luminescence (AID 504501); format: functional
T2 sequence (Q96LD8 whole entry): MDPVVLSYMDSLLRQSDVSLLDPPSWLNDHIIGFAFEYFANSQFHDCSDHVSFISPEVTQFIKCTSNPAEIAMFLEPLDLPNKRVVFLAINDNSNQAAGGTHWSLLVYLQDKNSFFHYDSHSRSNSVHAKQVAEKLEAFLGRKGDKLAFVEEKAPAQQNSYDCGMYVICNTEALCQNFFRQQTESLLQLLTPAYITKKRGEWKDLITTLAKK

Caspase-3 = target: T3, Caspase-3 (Homo sapiens, UniProt P42574); test: SAR Analysis of small molecule inhibitors of Sentrin-specific proteases (SENPs) using a Caspase-3 Selectivity assay. [Related pubchem assays (depositor defined):AID2540, AID2599, AID434973, AID489001]; format: functional
T3 sequence (P42574 whole entry): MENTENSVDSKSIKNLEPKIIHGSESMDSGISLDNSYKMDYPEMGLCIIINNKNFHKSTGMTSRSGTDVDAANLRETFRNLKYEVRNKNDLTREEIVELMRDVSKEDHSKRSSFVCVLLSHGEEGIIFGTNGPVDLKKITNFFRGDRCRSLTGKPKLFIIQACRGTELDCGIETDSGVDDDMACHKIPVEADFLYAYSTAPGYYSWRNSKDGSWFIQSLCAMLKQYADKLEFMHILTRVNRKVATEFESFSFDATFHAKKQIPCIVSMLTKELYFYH

[12] = target: T4, Sentrin-specific protease 7 (Homo sapiens, UniProt Q9BQF6); test: SENP7 protease inhibitors, SAR follow-up, biochemical, luminescence (AID 504497); format: functional
T4 sequence (Q9BQF6 whole entry): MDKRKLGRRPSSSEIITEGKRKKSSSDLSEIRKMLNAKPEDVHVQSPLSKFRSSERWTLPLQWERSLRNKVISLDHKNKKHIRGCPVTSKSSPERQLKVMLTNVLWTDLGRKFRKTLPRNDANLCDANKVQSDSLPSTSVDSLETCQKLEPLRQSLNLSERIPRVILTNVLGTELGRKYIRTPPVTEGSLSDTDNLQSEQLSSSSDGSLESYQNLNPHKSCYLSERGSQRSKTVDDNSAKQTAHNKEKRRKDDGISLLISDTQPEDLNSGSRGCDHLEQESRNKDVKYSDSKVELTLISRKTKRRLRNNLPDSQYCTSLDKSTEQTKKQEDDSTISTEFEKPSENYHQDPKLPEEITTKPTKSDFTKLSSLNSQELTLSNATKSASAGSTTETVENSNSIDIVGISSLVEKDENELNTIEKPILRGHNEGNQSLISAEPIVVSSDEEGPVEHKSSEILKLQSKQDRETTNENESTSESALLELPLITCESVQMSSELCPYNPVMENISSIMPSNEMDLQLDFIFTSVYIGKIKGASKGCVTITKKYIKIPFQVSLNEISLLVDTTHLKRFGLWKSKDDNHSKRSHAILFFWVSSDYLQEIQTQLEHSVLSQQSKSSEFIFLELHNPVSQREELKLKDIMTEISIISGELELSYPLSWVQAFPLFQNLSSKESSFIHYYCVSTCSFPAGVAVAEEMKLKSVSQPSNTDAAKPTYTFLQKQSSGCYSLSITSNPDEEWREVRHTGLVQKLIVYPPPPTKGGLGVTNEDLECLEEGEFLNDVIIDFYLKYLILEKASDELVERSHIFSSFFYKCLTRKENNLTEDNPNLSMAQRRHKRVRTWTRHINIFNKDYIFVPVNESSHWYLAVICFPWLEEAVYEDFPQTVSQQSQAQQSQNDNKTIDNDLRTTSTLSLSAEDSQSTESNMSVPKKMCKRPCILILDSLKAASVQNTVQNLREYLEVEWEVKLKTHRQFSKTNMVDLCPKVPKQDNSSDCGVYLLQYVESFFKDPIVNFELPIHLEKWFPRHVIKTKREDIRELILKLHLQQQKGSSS

[13] = target: T5, Sentrin-specific protease 6 (Homo sapiens, UniProt Q9GZR1); test: SAR Analysis of small molecule inhibitors of Sentrin-specific protease 6 (SENP6) using a Luminescent assay. [Related pubchem assays (depositor defined):AID2582, AID2599]; format: functional
T5 sequence (Q9GZR1 whole entry): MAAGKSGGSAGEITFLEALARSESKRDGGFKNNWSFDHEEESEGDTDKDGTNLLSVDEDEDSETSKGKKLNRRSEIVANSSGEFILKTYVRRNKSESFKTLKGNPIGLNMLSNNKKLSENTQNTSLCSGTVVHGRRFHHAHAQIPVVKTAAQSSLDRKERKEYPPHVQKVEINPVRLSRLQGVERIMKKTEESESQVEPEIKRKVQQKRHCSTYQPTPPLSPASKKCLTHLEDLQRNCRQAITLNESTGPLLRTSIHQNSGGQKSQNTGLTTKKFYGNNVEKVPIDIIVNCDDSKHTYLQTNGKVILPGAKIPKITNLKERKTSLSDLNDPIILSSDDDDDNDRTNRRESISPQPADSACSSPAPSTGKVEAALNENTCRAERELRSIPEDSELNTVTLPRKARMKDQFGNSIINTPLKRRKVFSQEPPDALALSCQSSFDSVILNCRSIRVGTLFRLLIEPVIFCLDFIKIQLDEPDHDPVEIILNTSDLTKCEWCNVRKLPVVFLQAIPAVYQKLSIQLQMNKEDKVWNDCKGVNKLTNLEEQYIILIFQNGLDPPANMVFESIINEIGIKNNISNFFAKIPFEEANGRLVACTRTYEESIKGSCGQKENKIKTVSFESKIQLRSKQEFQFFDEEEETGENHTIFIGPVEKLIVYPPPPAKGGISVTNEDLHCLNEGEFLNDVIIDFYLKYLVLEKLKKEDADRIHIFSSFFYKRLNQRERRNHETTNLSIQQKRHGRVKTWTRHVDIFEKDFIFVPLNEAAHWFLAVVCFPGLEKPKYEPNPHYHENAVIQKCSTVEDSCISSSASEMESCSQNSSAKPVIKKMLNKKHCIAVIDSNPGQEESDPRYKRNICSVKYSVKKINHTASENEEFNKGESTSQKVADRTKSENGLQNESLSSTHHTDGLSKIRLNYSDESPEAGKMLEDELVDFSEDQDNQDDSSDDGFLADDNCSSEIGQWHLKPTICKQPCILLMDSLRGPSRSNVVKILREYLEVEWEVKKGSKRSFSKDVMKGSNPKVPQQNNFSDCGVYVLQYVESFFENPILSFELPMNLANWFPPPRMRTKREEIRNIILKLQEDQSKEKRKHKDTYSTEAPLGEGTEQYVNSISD

[14] = target: Melanin-concentrating hormone receptor 1 (Homo sapiens, UniProt Q99705); test: Late-stage fluorescence-based counterscreen for antagonists of the G-protein coupled receptor 7 (GPR7): cell-based dose response assay to identify antagonists of the melanin-concentrating hormone receptor 1 (MCHR1) Set 5.; format: functional
Melanin-concentrating hormone receptor 1, sequence (Q99705 whole entry): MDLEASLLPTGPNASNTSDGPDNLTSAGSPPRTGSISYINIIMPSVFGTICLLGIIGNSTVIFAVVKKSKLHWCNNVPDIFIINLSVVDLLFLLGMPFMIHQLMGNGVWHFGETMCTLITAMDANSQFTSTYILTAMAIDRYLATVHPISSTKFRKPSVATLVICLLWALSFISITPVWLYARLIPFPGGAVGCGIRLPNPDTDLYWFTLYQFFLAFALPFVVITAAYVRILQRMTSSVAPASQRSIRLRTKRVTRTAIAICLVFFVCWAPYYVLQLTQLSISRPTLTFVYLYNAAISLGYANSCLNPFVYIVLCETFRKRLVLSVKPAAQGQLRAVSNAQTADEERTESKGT

[15] = target: Aryl hydrocarbon receptor (Homo sapiens, UniProt P35869); details: Potency;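 further: confirmatory quantitative high-throughput screen measuring activation of the AhR signaling pathway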
Cytochrome P450 3A4 = Cytochrome P450 3A4 (Homo sapiens, UniProt P08684); details: Potency;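 further: confirmatory qHTS run detecting inhibitors and substrates of CYP3A4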
Cytochrome P450 3A4, sequence (P08684 whole entry): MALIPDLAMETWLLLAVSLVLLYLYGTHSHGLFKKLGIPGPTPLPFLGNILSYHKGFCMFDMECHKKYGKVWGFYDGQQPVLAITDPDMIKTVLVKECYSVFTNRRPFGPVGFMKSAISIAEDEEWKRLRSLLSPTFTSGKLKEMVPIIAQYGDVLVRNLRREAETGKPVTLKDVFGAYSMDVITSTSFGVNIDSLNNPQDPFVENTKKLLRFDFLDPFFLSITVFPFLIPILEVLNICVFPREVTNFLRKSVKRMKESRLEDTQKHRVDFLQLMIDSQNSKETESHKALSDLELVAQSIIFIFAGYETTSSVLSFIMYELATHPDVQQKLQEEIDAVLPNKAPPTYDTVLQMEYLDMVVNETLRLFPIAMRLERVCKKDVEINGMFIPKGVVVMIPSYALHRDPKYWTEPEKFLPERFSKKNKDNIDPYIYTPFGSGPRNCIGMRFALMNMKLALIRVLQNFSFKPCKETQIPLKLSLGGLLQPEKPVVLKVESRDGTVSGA

Benomyl/methotrexate resistance protein, sequence (P28873 whole entry): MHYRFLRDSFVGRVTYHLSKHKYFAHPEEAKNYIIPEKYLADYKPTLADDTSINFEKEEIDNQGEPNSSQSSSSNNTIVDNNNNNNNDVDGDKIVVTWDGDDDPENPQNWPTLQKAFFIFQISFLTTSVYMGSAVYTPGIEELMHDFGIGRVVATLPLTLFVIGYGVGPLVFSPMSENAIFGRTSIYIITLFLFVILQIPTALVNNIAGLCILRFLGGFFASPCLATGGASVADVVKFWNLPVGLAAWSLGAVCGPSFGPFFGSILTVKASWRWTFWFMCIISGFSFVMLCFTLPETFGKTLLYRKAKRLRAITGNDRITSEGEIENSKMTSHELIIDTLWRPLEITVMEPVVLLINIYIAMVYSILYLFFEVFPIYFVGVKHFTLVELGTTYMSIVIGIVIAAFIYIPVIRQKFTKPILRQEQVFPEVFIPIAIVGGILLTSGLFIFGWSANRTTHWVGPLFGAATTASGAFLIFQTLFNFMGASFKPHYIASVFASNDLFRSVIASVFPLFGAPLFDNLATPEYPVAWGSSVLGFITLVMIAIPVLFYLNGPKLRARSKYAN

SMILES: NC(=O)c1nc(-c2ccco2)nc2c1[nH]c(=O)n2-c1ccc(Cl)c(Cl)c1
EC50 [1]: 14 µM (active)

SMILES: CCSC1=N/C(=C\c2ccc3c(c2)OCO3)C(=O)S1
IC50 [3]: 25 µM (active) | IC50 (Prothrombin): 64.3 µM (active) | IC50 [4]: > 100 µM (inactive)

SMILES: CCc1ccc(NC(=O)Cc2cn(C)c3ccccc23)cc1
IC50 [5]: > 80 µM (inactive) | IC50 [6]: 57 µM (inactive) | IC50 [7]: > 80 µM (inactive)

SMILES: S=C(c1cn(CCOc2cccc3ccccc23)c2ccccc12)N1CCCC1
AC50 (INS1): 4.3 µM (active) | IC50 [3]: 32.9 µM (active) | IC50 (Prothrombin): 41.8 µM (active) | IC50 [4]: > 100 µM (inactive)

SMILES: COc1ccc(C(=O)NC(C)CCn2cccn2)cc1OC1CCN(C(C)C)CC1 (centres undefined)
IC50 [8]: 6.86 µM (active) | IC50 [9]: 4.22 µM (active)

SMILES: CCOc1ccc2nc(N(CCCn3ccnc3)C(=O)c3ccc(Cl)s3)sc2c1
IC50 [11]: > 99 µM (inactive) | IC50 (Caspase-3): > 99 µM (inactive) | IC50 [12]: > 99 µM (inactive) | IC50 [13]: > 99 µM (inactive)

SMILES: C[C@H]1CN([C@@H](C)CO)C(=O)c2cc(NC(=O)Cc3cn(C)c4ccccc34)ccc2O[C@@H]1CN(C)S(=O)(=O)c1ccc(F)cc1
AC50 [2]: 19.5 µM (active)

SMILES: CC(C)(C)C(=O)C(Oc1ccc(Cl)cc1)n1cncn1 (centres undefined) [TRIADIMEFON]
AC50 [15]: 70.8 µM (inconclusive) | AC50 (Cytochrome P450 3A4): 0.794 µM (inconclusive)

Further lines, with some results ahead:

AC50 [2]: 19.5 µM (active)
SMILES: CCSc1nnc([C@H](Cc2c[nH]c3ccccc23)NC(=O)OC(C)(C)C)o1

IC50 [8]: 0.479 µM (active) | IC50 [9]: 0.178 µM (active)
SMILES: OC(CNC1Cc2ccccc2C1)c1ccccc1 (centres undefined)

IC50 [10]: 0.64 µM (active)
SMILES: O=C(COc1ccc(F)cc1Cl)Nc1ccccc1C(=O)N1CCCCC1

IC50 (Caspase-3): > 99 µM (inactive) | IC50 [12]: > 99 µM (inactive) | IC50 [13]: > 99 µM (inactive)
SMILES: Cc1nn(-c2ccccc2)c2c1C(c1ccc(OC(F)F)cc1)C(C#N)=C(N)O2 (centres undefined)
IC50 [11]: > 99 µM (inactive)

IC50 [14]: 1.22 µM (active)
SMILES: CSc1ccc(Oc2c(Cl)cnn(Cc3cccc4ccccc34)c2=O)cc1
